What follows are compounds tested on Human epidermoid A431 carcinoma (assay: In Vivo Models - Inhibition of Tumor Growth, A431). Conditions: 100 mg/kg, oral daily for 30 days, athymic mice.
Protocol: In Vivo Models—Inhibition of Tumor Growth
The ability of test compounds to inhibit unregulated growth of human tumor cells in vivo was evaluated by implanting human tumor cells into the hindflank of athymic mice, administering a test compound and then quantifying any change in tumor size.
Human epidermoid A431 carcinoma, N87 cells and BT474 cells were implanted subcutaneously into the hindflank of female athymic mice (Charles River) and allowed to grow for 6-10 days. After a measurable tumor was established (as determined by baseline caliper measurement), the animal was administered an oral dose of the test compound daily for a period of 30 days. Tumor size was measured every five days and the degree of inhibition was determined by comparing drug-treated animals to vehicle-treated animals.
Variations of this method are intended to include intraperitoneal injection or intravenous infusion as the route of administration and administration of the test compound either alone or in a combination therapy.
The inhibition of tumor growth values are shown in Table 8 at various test concentrations, as indicated. For compounds with multiple values at one test concentration, each value represents a separate assay result.

SMILES	percent inhibition A431 [%]
O=C(Nc1ccc(CN2CCCCC2)cc1)c1sc2ncnc3c2c1NC(=O)N3c1ccc(Sc2ccccc2)cc1 [Cpd 169, 4-oxo-5-(4-phenylsulfanyl-phenyl)-4,5-dihydro-3H-1-thia-3,5,6,8-tetraaza-acenaphthylene-2-carboxylic acid (4-piperidin-1-ylmethyl-phenyl)-amide]	55.4

Each compound was assayed against T1, HER-4 (Homo sapiens, UniProt Q15303) (assay: HER-4 Kinase Assay). Conditions: not given.
T1 construct: His6 with thrombin site (N); purchased Proqinase (Freiburg, Germany)
T1 sequence (Q15303 676-1307): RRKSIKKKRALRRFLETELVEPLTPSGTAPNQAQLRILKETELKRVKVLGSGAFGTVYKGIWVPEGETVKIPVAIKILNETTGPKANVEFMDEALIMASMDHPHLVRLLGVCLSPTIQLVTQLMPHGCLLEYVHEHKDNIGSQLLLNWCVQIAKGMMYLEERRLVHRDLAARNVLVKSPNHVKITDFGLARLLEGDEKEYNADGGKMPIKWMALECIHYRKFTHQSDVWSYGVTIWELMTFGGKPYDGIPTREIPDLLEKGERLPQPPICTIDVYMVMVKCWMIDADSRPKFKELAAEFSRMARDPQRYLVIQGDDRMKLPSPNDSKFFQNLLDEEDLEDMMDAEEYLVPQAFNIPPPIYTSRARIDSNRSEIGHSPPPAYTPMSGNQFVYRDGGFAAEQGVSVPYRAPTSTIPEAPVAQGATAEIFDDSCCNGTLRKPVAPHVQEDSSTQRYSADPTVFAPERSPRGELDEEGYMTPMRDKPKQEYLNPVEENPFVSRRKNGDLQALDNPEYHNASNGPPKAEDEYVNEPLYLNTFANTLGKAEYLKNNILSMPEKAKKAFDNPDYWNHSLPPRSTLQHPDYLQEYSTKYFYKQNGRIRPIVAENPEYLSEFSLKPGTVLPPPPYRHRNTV
Format: biochemical
Protocol: The HER-4 kinase used was purified at Proqinase (Freiburg, Germany) from a construct that consisted of a fusion of GST (Glutathione-S-Transferase), HIS6-Thrombin and the nucleotides encoding amino acids 676 to 1307 of HER-4 (Accession NM 005235).
A mixture of a 10× kinase reaction buffer (600 mM Hepes at pH 7.5, 30 mM Magnesium Chloride, 0.03 mM Sodium Vanadate and 500 μg/mL PEG 20,000), DTT (1.2 mM final from a 10 mM) stock), ATP (1 μM from a 10 mM stock), biotinylated polyGluTyr (1.5 ng/μL final from stock of 1 μg/μL) prepared by Upstate Biotechnologies, Lake Placid, N.Y.), Manganese Chloride (3 mM final from a 1 M stock), γ-^33P-ATP (10 μCl/mL stock) and water (70 μL/well) was added to each well of a Streptavidin Flashplate (Cat. # SMP103, NEN, Boston, Mass.).
Test compound stock (1 μL) was added to the appropriate wells. Diluted GST HER-4 kinase (6.7 ng/μL diluted into 50 mM Tris-HCl at pH 8.0 and 0.1% bovine serum albumin) (30 μL) was added (total volume of 200 ng/well) to initiate the reactions.
The reaction plates were incubated at 30° C. for 1 hr. The reaction was terminated by aspirating the reaction mixture from the plate wells and washing the wells three times with a 1×PBS stop buffer (300 μL) and 100 mM EDTA. After the final wash, the same stop buffer (200 μL) was again added to the wells. The plates were then sealed and read on the TopCount scintillation counter.
For a series of test concentrations, the IC50 was derived by graphing percent inhibition against the log of the concentrations tested for a given compound.

SMILES	IC50 [µM]
O=C(Nc1ccc(CN2CCOCC2)cc1)c1sc2ncnc3c2c1NC(=O)N3c1ccc(Oc2ccccc2)cc1 [Cpd 97, 4-oxo-5-(4-phenoxy-phenyl)-4,5-dihydro-3H-1-thia-3,5,6,8-tetraaza-acenaphthylene-2-carboxylic acid (4-morpholin-4-ylmethyl-phenyl)-amide]	0.099
CN1CCN(Cc2ccc(NC(=O)c3sc4ncnc5c4c3NC(=O)N5c3ccc(Oc4ccccc4)cc3)cc2)CC1 [Cpd 98, 4-oxo-5-(4-phenoxy-phenyl)-4,5-dihydro-3H-1-thia-3,5,6,8-tetraaza-acenaphthylene-2-carboxylic acid [4-(4-methyl-piperazin-1-ylmethyl)-phenyl]-amide]	0.081
O=C(Nc1ccc(CN2CCOCC2)cc1)c1sc2ncnc3c2c1NC(=O)N3c1ccc(Sc2ccccc2)cc1 [Cpd 178, 4-oxo-5-(4-phenylsulfanyl-phenyl)-4,5-dihydro-3H-1-thia-3,5,6,8-tetraaza-acenaphthylene-2-carboxylic acid (4-morpholin-4-ylmethyl-phenyl)-amide]	0.126

Now those with a lower IC50, led by results:

IC50 [µM]	SMILES
0.03	O=C(Nc1ccc(CN2CCCCC2)cc1)c1sc2ncnc3c2c1NC(=O)N3c1ccc(Sc2ccccc2)cc1 [Cpd 169, 4-oxo-5-(4-phenylsulfanyl-phenyl)-4,5-dihydro-3H-1-thia-3,5,6,8-tetraaza-acenaphthylene-2-carboxylic acid (4-piperidin-1-ylmethyl-phenyl)-amide]
0.018	O=C(Nc1ccc(CN2CCCCC2)cc1)c1sc2ncnc3c2c1NC(=O)N3c1ccc(Oc2ccccc2)cc1 [Cpd 96, 4-oxo-5-(4-phenoxy-phenyl)-4,5-dihydro-3H-1-thia-3,5,6,8-tetraaza-acenaphthylene-2-carboxylic acid (4-piperidin-1-ylmethyl-phenyl)-amide]

From patent US7579356B2, “Thia-tetraazaacenaphthylene kinase inhibitors” (Janssen Pharmaceutica NV, priority 2005, dated 2009)
